Data as given in paper PMC12424025, “Deep Structural Characterization of Protein-Bound Lipids via Native MS and Ultraviolet Photodissociation” (Analytical Chemistry, 2025).

Target: T1, AqpZ (Escherichia coli, UniProt P60844)
T1 construct: C-terminal GFP-His tag cut by TEV protease; expressed in E. coli BL21(DE3); DDM-purified, C8E4 for native MS; homotetramer about 102 kDa with lipids (17-, m/z 6000)
T1 sequence (P60844 1-231): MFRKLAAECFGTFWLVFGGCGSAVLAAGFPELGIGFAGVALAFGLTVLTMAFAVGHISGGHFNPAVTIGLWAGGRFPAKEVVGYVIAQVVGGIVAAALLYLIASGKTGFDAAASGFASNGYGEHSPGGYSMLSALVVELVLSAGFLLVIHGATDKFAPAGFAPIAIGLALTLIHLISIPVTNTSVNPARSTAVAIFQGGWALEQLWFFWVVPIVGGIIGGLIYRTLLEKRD
Assay: native MS with single lipid standard
Assay type: binding
Conditions: 200 mM ammonium acetate pH 7.0, 2xCMC C8E4

CCCCCCCC/C=C\CCCCCCCC(=O)OC[C@H](COP(=O)(O)OCC(O)CO)OC(=O)CCCCCCC/C=C\CCCCCCCC (some centres unmarked) [DOPG]
native MS with single lipid standard: The resulting native mass spectra confirmed that all three lipid classes bind to the membrane protein

CCCCCCCC/C=C\CCCCCCCC(=O)OC[C@H](COP(=O)(O)OCC(O)COP(=O)(O)OC[C@@H](COC(=O)CCCCCCC/C=C\CCCCCCCC)OC(=O)CCCCCCC/C=C\CCCCCCCC)OC(=O)CCCCCCC/C=C\CCCCCCCC (some centres unmarked) [CDL 18:1(9Z)]
native MS with single lipid standard: The resulting native mass spectra confirmed that all three lipid classes bind to the membrane protein
